From patent US10745382B2 (BRISTOL-MYERS SQUIBB COMPANY, priority 2015, dated 2020)
pIC50: −log10 of the molar value.

These molecules were tested against T1, PD-1/PD-L1 (Homo sapiens, UniProt Q9NZQ7) (assay: PD-1/PD-L1 Homogenous Time-Resolved Fluorescence (HTRF) binding assay). Conditions: PD-L1-His 10 nM, PD-1-Ig 20 nM; numeric IC50; read-out: Range or IC50.
T1 construct: made in house; host or cells: HEK293T
Summary of the method: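 dPBS + 0.1% BSA + 0.05% Tween-20 buffer; Eu-cryptate anti-Ig 1 nM final, APC anti-His 20 nM final; HTRF read. Counter-assays: PD-1-Ig/PD-L2-His 20 & 5 nM, CD80-His/PD-L1-Ig 100 & 10 nM.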

T1 sequence (Q9NZQ7 with tags, fused parts or gaps): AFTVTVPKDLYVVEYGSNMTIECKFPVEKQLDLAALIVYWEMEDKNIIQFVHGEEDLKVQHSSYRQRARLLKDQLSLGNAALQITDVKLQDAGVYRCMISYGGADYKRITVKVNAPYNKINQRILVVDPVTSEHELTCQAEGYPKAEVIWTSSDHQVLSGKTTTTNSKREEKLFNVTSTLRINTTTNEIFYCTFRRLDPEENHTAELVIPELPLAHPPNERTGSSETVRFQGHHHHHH

Point of comparison: Cc1c(COc2cc(OCc3cncc(C#N)c3)c(CN[C@@](C)(CO)C(=O)O)cc2Cl)cccc1-c1cccc(OCCCN2CCC(O)C2)c1C(F)(F)F (stereo in doubt) [Example 3011, (S)-2-((5-chloro-2-((5-cyanopyridin-3-yl)methoxy)-4-((3′-(3-((R)-3-hydroxypyrrolidin-1-yl)propoxy)-2-methyl-2′-(trifluoromethyl)-[1,1′-biphenyl]-3-yl)methoxy)benzyl)amino)-3-hydroxy-2-methylpropanoic Acid], pIC50 8.05. Against it:
- Cc1ccc(COc2cc(OCc3cccc(-c4cccc(OCCCN5CC[C@@H](O)C5)c4C)c3C)c(Cl)cc2CNC(C)(CO)CO)cc1C [Example 4506, (R)-2-((5-chloro-2-((3,4-dimethylbenzyl)oxy)-4-((3′-(3-(3-hydroxypyrrolidin-1-yl)propoxy)-2,2′-dimethyl-[1,1′-biphenyl]-3-yl)methoxy)benzyl)amino)-2-methylpropane-1,3-diol] — 0.47 log units higher, 8.52

Same assay, conditions: PD-L1-His 10 nM, PD-1-Ig 20 nM; value given as range class; read-out: Range or IC50

Cc1c(COc2cc(OCc3cncc(S(C)(=O)=O)c3)c(CN[C@H](CO)C(=O)O)cc2Cl)cccc1-c1cccc(OCCCN2CC[C@@H](O)C2)c1 [Example 1023, (R)-2-((5-chloro-4-((3′-(3-((R)-3-hydroxypyrrolidin-1-yl)propoxy)-2-methyl-[1,1′-biphenyl]-3-yl)methoxy)-2-((5-(methylsulfonyl)pyridin-3-yl)methoxy)benzyl)amino)-3-hydroxypropanoic Acid] and COC(=O)C1(O)CCN(CCCOc2cccc(-c3cccc(COc4cc(OCc5cncc(S(C)(=O)=O)c5)c(CN[C@H](CO)C(=O)O)cc4Cl)c3C)c2C)CC1 [Example 1038, (R)-2-((5-chloro-4-((3′-(3-(4-hydroxy-4-(methoxycarbonyl)piperidin-1-yl)propoxy)-2,2′-dimethyl-[1,1′-biphenyl]-3-yl)methoxy)-2-((5-(methylsulfonyl)pyridin-3-yl)methoxy)benzyl)amino)-3-hydroxypropanoic Acid] fall in the same range of pIC50: 8.00 to 9.68 for the first, 8.00 to 9.68 for the second.

CNC(=O)C1CCN(CCCOc2cccc(-c3cccc(COc4cc(OCc5cncc(C#N)c5)c(CN[C@](C)(CO)C(=O)O)cc4Cl)c3C)c2Cl)CC1 [Example 1076, (R)-2-((5-chloro-4-((2′-chloro-2-methyl-3′-(3-(4-(methylcarbamoyl)piperidin-1-yl)propoxy)-[1,1′-biphenyl]-3-yl)methoxy)-2-((5-cyanopyridin-3-yl)methoxy)benzyl)amino)-3-hydroxy-2-methylpropanoic Acid] and Cc1c(COc2cc(OCc3cncc(C#N)c3)c(CN[C@@](C)(CO)C(=O)O)cc2Cl)cccc1-c1cccc(OCCCN2CCC[C@@H](C(=O)O)C2)c1C [Example 2239, (3R)-1-(3-(3′-((4-(((S)-2-carboxy-1-hydroxypropan-2-ylamino)methyl)-2-chloro-5-((5-cyanopyridin-3-yl)methoxy)phenoxy)methyl)-2,2′-dimethylbiphenyl-3-yloxy)propyl)piperidine-3-carboxylic Acid] fall in the same range of pIC50: 8.00 to 9.68 for the first, 8.00 to 9.68 for the second.

Compared with Cc1c(COc2cc(OCc3cncc(C#N)c3)c(CO)cc2Cl)cccc1-c1cccc(OCCCNC(CO)(CO)CO)c1Cl [Example 2041, 5-((4-chloro-5-((2′-chloro-3′-(3-((1,3-dihydroxy-2-(hydroxymethyl)propan-2-yl)amino)propoxy)-2-methyl-[1,1′-biphenyl]-3-yl)methoxy)-2-(hydroxymethyl)phenoxy)methyl)nicotinonitrile], Cc1c(COc2cc(OCc3cncc(C#N)c3)c(CN[C@](C)(CO)C(=O)O)cc2Cl)cccc1-c1cccc(OCCCNC(CO)CO)c1Cl [Example 2038, (R)-2-((5-chloro-4-((2′-chloro-3′-(3-((1,3-dihydroxypropan-2-yl)amino)propoxy)-2-methyl-[1,1′-biphenyl]-3-yl)methoxy)-2-((5-cyanopyridin-3-yl)methoxy)benzyl)amino)-3-hydroxy-2-methylpropanoic Acid] is higher in pIC50: 7.00 to 8.00 for the first, 8.00 to 9.68 for the second.

Cc1c(COc2cc(OCc3cncc(C#N)c3)c(CN[C@@](C)(CO)C(=O)O)cc2Cl)cccc1-c1cccc(OCCCN2CCC(O)(c3ccccc3)C2)c1C (stereo partly drawn) [Example 3037, (2S)-2-((5-chloro-2-((5-cyanopyridin-3-yl)methoxy)-4-((3′-(3-(3-hydroxy-3-phenylpyrrolidin-1-yl)propoxy)-2,2′-dimethyl-[1,1′-biphenyl]-3-yl)methoxy)benzyl)amino)-3-hydroxy-2-methylpropanoic Acid] and Cc1c(COc2cc(OCc3cncc(C#N)c3)c(CN[C@](C)(CO)C(=O)O)cc2Cl)cccc1-c1cccc(OCCCN2CCC(CO)(C(=O)O)C2)c1C (stereo partly shown) [Example 1051] fall in the same range of pIC50: 8.00 to 9.68 for the first, 8.00 to 9.68 for the second.

Cc1c(OCCCN2CC[C@@H](O)C2)cccc1-c1cccc(COc2cc(OCc3cncc(C#N)c3)c(CNC(C)(CO)CO)cc2Cl)c1Cl [Example 2305, (R)-5-((4-chloro-5-((2-chloro-3′-(3-(3-hydroxypyrrolidin-1-yl)propoxy)-2′-methyl-[1,1′-biphenyl]-3-yl)methoxy)-2-(((1,3-dihydroxy-2-methylpropan-2-yl)amino)methyl)phenoxy)methyl)nicotinonitrile] and Cc1c(CCCCN2CC[C@@H](O)C2)cccc1-c1cccc(COc2cc(OCc3cncc(C#N)c3)c(CNC(C)(CO)CO)cc2Cl)c1C [Example 4065, (R)-5-((4-chloro-2-(((1,3-dihydroxy-2-methylpropan-2-yl)amino)methyl)-5-((3′-(4-(3-hydroxypyrrolidin-1-yl)butyl)-2,2′-dimethyl-[1,1′-biphenyl]-3-yl)methoxy)phenoxy)methyl)nicotinonitrile] fall in the same range of pIC50: 8.00 to 9.68 for the first, 8.00 to 9.68 for the second.

First: Cc1c(COc2cc(OCc3cncc(C#N)c3)c(CN3CCCC[C@H]3C(=O)O)cc2Cl)cccc1-c1ccc2c(c1C)OCCO2 [Example 3044, (2S)-1-(5-chloro-2-((5-cyanopyridin-3-yl)methoxy)-4-((2-methyl-3-(5-methyl-2,3-dihydrobenzo[b][1,4]dioxin-6-yl)benzyl)oxy)benzyl)piperidine-2-carboxylic Acid]
Second: CCN(CC)C(=O)c1cccc(-c2cccc(COc3cc(OCc4cncc(C#N)c4)c(CN4CCC[C@H]4C(=O)O)cc3Cl)c2C)c1C [Example 4041, (5-chloro-2-((5-cyanopyridin-3-yl)methoxy)-4-((3′-(diethylcarbamoyl)-2,2′-dimethyl-[1,1′-biphenyl]-3-yl)methoxy)benzyl)-L-proline]
The pIC50 of the first is higher: 8.00 to 9.68 for the first, 5.70 to 7.00 for the second. The first is the more potent here.

Compared with Cc1c(COc2cc(OCc3cncc(C#N)c3)c(CN[C@@H](CNC(=O)OC(C)(C)C)C(=O)O)cc2Cl)cccc1-c1cccc(C(=O)N2CCOCC2)c1C [Example 4056, (S)-3-((tert-butoxycarbonyl)amino)-2-((5-chloro-2-((5-cyanopyridin-3-yl)methoxy)-4-((2,2′-dimethyl-3′-(morpholine-4-carbonyl)-[1,1′-biphenyl]-3-yl)methoxy)benzyl)amino)propanoic Acid], Cc1cc(C(=O)N2CCOCC2)ccc1-c1cccc(COc2cc(OCc3cncc(C#N)c3)c(CNC(CO)CO)cc2Cl)c1C [Example 2349, 5-((4-chloro-2-(((1,3-dihydroxypropan-2-yl)amino)methyl)-5-((2,2′-dimethyl-4′-(morpholine-4-carbonyl)-[1,1′-biphenyl]-3-yl)methoxy)phenoxy)methyl)nicotinonitrile] is higher in pIC50: 5.70 to 7.00 for the first, 7.00 to 8.00 for the second. The second is the more potent here.

Cc1cc(OCc2cccc(-c3cccc(OCCCN4CC[C@@H](O)C4)c3C)c2C)cc(OCc2cncc(C#N)c2)c1CN(CCO)CCO [Example 4090, (R)-5-((2-((bis(2-hydroxyethyl)amino)methyl)-5-((3′-(3-(3-hydroxypyrrolidin-1-yl)propoxy)-2,2′-dimethyl-[1,1′-biphenyl]-3-yl)methoxy)-3-methylphenoxy)methyl)nicotinonitrile] and Cc1c(COc2cc(OCc3cncc(C#N)c3)c(CN[C@@](C)(CO)C(=O)O)cc2Cl)cccc1-c1cccc(OCCCN2CCC(NC(=O)C(F)(F)F)C2)c1C (stereo partly drawn) [Example 2274, (2S)-2-((5-chloro-2-((5-cyanopyridin-3-yl)methoxy)-4-((2,2′-dimethyl-3′-(3-(3-(2,2,2-trifluoroacetamido)pyrrolidin-1-yl)propoxy)-[1,1′-biphenyl]-3-yl)methoxy)benzyl)amino)-3-hydroxy-2-methylpropanoic Acid] fall in the same range of pIC50: 8.00 to 9.68 for the first, 8.00 to 9.68 for the second.

Cc1c(COc2cc(OCc3cncc(C#N)c3)c(CNC(C)(CO)CO)cc2Cl)cccc1-c1cccc(C(=O)N(C)C)c1C [Example 4035, 3′-((2-chloro-5-((5-cyanopyridin-3-yl)methoxy)-4-(((1,3-dihydroxy-2-methylpropan-2-yl)amino)methyl)phenoxy)methyl)-N,N,2,2′-tetramethyl-[1,1′-biphenyl]-3-carboxamide] and Cc1c(COc2cc(OCc3cncc(C#N)c3)c(CN3CCCC[C@H]3C(=O)O)cc2Cl)cccc1-c1cccc(C(=O)NCCN2CCS(=O)(=O)CC2)c1C [Example 4004, (S)-1-(5-chloro-2-((5-cyanopyridin-3-yl)methoxy)-4-((3′-((2-(1,1-dioxidothiomorpholino)ethyl)carbamoyl)-2,2′-dimethyl-[1,1′-biphenyl]-3-yl)methoxy)benzyl)piperidine-2-carboxylic Acid] fall in the same range of pIC50: 7.00 to 8.00 for the first, 7.00 to 8.00 for the second.

Cc1c(OCCCN2CC[C@@H](O)C2)cccc1-c1cccc(COc2cc(OCC#N)c(CNC(CO)CO)cc2Cl)c1Cl [Example 2314, (R)-2-(4-chloro-5-((2-chloro-3′-(3-(3-hydroxypyrrolidin-1-yl)propoxy)-2′-methyl-[1,1′-biphenyl]-3-yl)methoxy)-2-(((1,3-dihydroxypropan-2-yl)amino)methyl)phenoxy)acetonitrile] and CC(=O)N[C@@H]1CCN(CCCOc2cccc(-c3cccc(COc4cc(OCc5cncc(C#N)c5)c(CN5CC[C@@H](NC(C)=O)C5)cc4Cl)c3C)c2C)C1 [Example 2267, N-((3R)-1-(3-(3′-((4-(((R)-3-acetamidopyrrolidin-1-yl)methyl)-2-chloro-5-((5-cyanopyridin-3-yl)methoxy)phenoxy)methyl)-2,2′-dimethylbiphenyl-3-yloxy)propyl)pyrrolidin-3-yl)acetamide] fall in the same range of pIC50: 8.00 to 9.68 for the first, 8.00 to 9.68 for the second.
